The results in this text go back to patent publication US20240300945A1, “CLY SERIES COMPOUND, PREPARATION METHOD THEREFOR AND USE THEREOF IN PREPARATION OF DRUGS” (NANJING WELLBEST PHARMACEUTICAL CO., LTD, priority 2021, published 2024).

One test relates to skin melanocytes. Briefly: Chloasma model of guinea pig: pathomorphological observation of skin melanocytes. The format is in vivo. Also noted: Average gray level (melanocyte depth): scale not given here. As to conditions: 0.25% cream once a day, 30 days. An excerpt:
According to the body weight, they were randomly divided into the model control group (applied cream matrix), blank control group (applied cream matrix), CLY-1 treatment group (applied 0.25% CLY-1 cream on the skin), CLY-2 treatment group (0.25% CLY-2 cream on the skin), CLY-3 treatment group (0.25% CLY-3 cream on the skin), CLY-4 treatment group (0.25% CLY-4 cream on the skin), CLY-5 treatment group (0.25% CLY-5 cream on the skin) CLY-8 treatment group (0.25% CLY-8 cream on the skin), CLY-11 treatment group (0.25% CLY-11 cream on the skin), CLY-19 treatment group (0.25% CLY-19 cream on the skin), CLY-36 treatment group (0.25% CLY-36 cream on the skin), CLY-39 treatment group (0.25% CLY-39 cream on the skin), positive treatment group (0.25% arbutin cream on the skin), 6 in each group. In addition to the blank control group, all guinea pigs in the other groups were injected with 20 mg/ml progesterone injection (7.5 mg/kg) into the muscle at the root of the hind leg, once a day, for 30 consecutive days to establish the chloasma model. […] After modeling, the guinea pigs in the model control group, blank control group, each CLY series treatment group, and positive treatment group were treated with corresponding cream on the back for intervention, once a day, for 30 consecutive days.
Took 1 piece of spare skin tissue from each of all guinea pigs, about 2 cm×1 cm, 10% paraformaldehyde fixation, pathological tissue detection, immunohistochemical staining, observation of melanocyte staining and number, and judgment of positive cells according to the literature: none, 0 point<15%, 0.5 points<30%, 1 point; >30%, 2 points. Observed 5 visual fields in each slice, found out the positive target with brown reaction in the cytoplasm of skin epidermis and accessory epithelial cells, and used BX50F4 Beihang pathological image analysis system for quantitative analysis to obtain the average area, the ratio of target area to statistical field area (areal density), the ratio of target number to statistical field area (number density), the average gray level, the average optical density and the integrated optical density of each guinea pig's 5 visual fields of melanin positive target.
SPSS16.0 software was used for statistics. The measurement data were expressed by mean±standard deviation (x±s). The comparison between multiple groups was performed by one-way ANOVA, and the comparison between groups was performed by t-test. P<0.05 was statistically significant.

Test [1] relates to skin hair follicles and sebaceous glands of mice. The test is described as follows: Mouse hair loss model: histopathological grading of skin hair follicles and sebaceous glands. The format is in vivo, C57BL/6 mice. As to conditions: external 2% tincture, 60 days, 6 mice per group; for number of mice with hair follicle and sebaceous gland grade +++: grade +++ (most severe); for number of mice with hair follicle and sebaceous gland grade ±: grade ± (lesions limited); for number of mice with hair follicle and sebaceous gland grade −: grade − (normal structure). The text has this:
The experimental mice were divided into the negative control group (external use of 60% ethanol), model group (external use of 60% ethanol), positive control group (external use of 2% minoxidil tincture), CLY-1 external treatment group (external use of 2% CLY-1 tincture), CLY-2 external treatment group (external use of 2% CLY-2 tincture), CLY-3 external treatment group (external use of 2% CLY-3 tincture), CLY-4 external treatment group (external use of 2% CLY-4 tincture), CLY-8 external treatment group (external use of 2% CLY-8 tincture) CLY-11 external treatment group (2% CLY-11 tincture), CLY-19 external treatment group (2% CLY-19 tincture), CLY-36 external treatment group (2% CLY-36 tincture), and CLY-39 external treatment group (2% CLY-39 tincture). There were 6 animals in each group, half male and half female. An area of 4 cm×5 cm from the back of experimental mice with hair removed was selected, and the hair removal area was painted yellow with 3% picric acid solution to determine the observation area of the hair removal experiment. In addition to the negative control group, mice in other groups were injected subcutaneously with testosterone propionate injection [8 ml/(kg·d)] at the back of the neck, once a day, for 60 consecutive days, to establish the model of androgenic alopecia (AGA). At the same time of modeling, the rats in the corresponding drug group were smeared with drugs on the observation area of the back at the rate of 1 ml/(piece·time), twice a day, with an interval of 2 hours. The normal control group and the model control group were smeared with the excipient (60% ethanol solution), 1 ml/(one time), twice a day, for 60 consecutive days.
10 hairs were extracted from the observation area on the back of each mouse every 15 days after administration, and the hair length was measured with a vernier caliper. After 60 days of administration, the skin of the experimental observation area was taken for routine tissue dehydration, paraffin embedding, HE staining, and light microscopy to observe the histopathological changes of mouse skin hair follicles and sebaceous glands. Semi-quantitative analysis was performed for each group. The grading criteria are as follows: the normal structure of dermal tissue cells, subcutaneous hair follicles, and sebaceous glands is marked as […]: no hyperplasia of dermal tissue is found, the lesions of hair follicles and sebaceous glands are limited, and no inflammation is found under the skin is marked as “+”: no obvious hyperplasia of dermal tissue is found, and the follicles are obviously cystic. No obvious hyperplasia of sebaceous glands is found, and no inflammation is found under the skin is marked as “+”: the dermal tissue has segmental hyperplasia, which is not obvious, A small number of hair follicles have cystic changes, and the sebaceous glands have mild hyperplasia and hypertrophy. There is no obvious inflammation under the skin, which is marked as “++”: the dermal tissue cells of the skin have different degrees of segmental hyperplasia, and some hair follicles have cystic changes, showing uneven size of hair follicles, and no cells around. The sebaceous glands have hyperplasia, and the nuclei in the proliferative glands are few. A few subcutaneous mild inflammatory hyperplasia is marked as “+++”.

For `CCN1CCC[C@@H](N(C(=O)c2ccc(-n3nnc4cccnc43)cc2)c2ncccc2Cl)C1` [CLY-2, (R)-4-(3H-[1,2,3]triazolo[4,5-b]pyridin-3-yl)-N-(3-chloropyridin-2-yl)-N-(1-ethylpiperidin-3-yl)benzamide], in the test with skin melanocytes, the “Area density of melanocytes” value turned out to be 0.004 ± 0.002, the Area of melanocytes stood at 366.26 ± 62.15 um2, the “Average gray level (melanocyte depth)” value is 0.41 ± 0.06 and the “Average optical density (melanocyte depth)” value (“Average optical density” below) is reported as 10.68 ± 1.18. Also, in the test on skin melanocytes, the “Integrated optical density (melanocyte depth)” value (“Integrated optical density” for short) worked out at 106.96 ± 9.84, the “Number density of melanocytes” value is listed as 1.88 ± 1.34 and the Number of melanocytes was 1.75 ± 0.53. In test [1], the “number of mice with hair follicle and sebaceous gland grade +++” value was found to be 0; the “number of mice with hair follicle and sebaceous gland grade ++” value is on record as 0; the “number of mice with hair follicle and sebaceous gland grade +” value turned out to be 2; the “number of mice with hair follicle and sebaceous gland grade ±” value turned out to be 4. Moreover, in test [1], the “number of mice with hair follicle and sebaceous gland grade −” value came to 0.

Regarding `CN1CCC[C@@H](N(C(=O)c2ccc(-n3nnc4cccnc43)cc2)c2ncccc2Cl)C1` [CLY-1, (R)-4-(3H-[1,2,3]triazolo[4,5-b]pyridin-3-yl)-N-(3-chloropyridin-2-yl)-N-(1-methylpiperidin-3-yl)benzamide], in the test on skin melanocytes, the “Area density of melanocytes” value amounted to 0.005 ± 0.002, the Area of melanocytes is 372.31 ± 58.32 um2, the “Average gray level (melanocyte depth)” value was 0.43 ± 0.07 and the “Average optical density” value was determined as 11.23 ± 1.21. Also, in the test on skin melanocytes, the “Integrated optical density” value was found to be 103.34 ± 9.71, the “Number density of melanocytes” value is on record as 1.91 ± 0.96 and the Number of melanocytes came to 1.93 ± 0.55. Besides, in test [1], the “number of mice with hair follicle and sebaceous gland grade +++” value amounted to 0; the “number of mice with hair follicle and sebaceous gland grade ++” value is 1; the “number of mice with hair follicle and sebaceous gland grade +” value is 2; the “number of mice with hair follicle and sebaceous gland grade ±” value stood at 3. Moreover, the “number of mice with hair follicle and sebaceous gland grade −” value in test [1] is 0.

Regarding `Nc1ccccc1-c1ccc(C(=O)N(c2ncccc2Cl)[C@@H]2CCCNC2)cc1` [CLY-39], in the test on skin melanocytes, the “Area density of melanocytes” value is listed as 0.006 ± 0.003, the Area of melanocytes was 458.06 ± 76.32 um2, the “Average gray level (melanocyte depth)” value is on record as 0.47 ± 0.07 and the “Average optical density” value worked out at 11.06 ± 1.17. Moreover, in the test on skin melanocytes, the “Integrated optical density” value is on record as 101.36 ± 9.72, the “Number density of melanocytes” value was determined as 2.03 ± 1.24 and the Number of melanocytes is recorded as 1.39 ± 0.32. In test [1], the “number of mice with hair follicle and sebaceous gland grade +++” value is listed as 0; the “number of mice with hair follicle and sebaceous gland grade ++” value stood at 1; the “number of mice with hair follicle and sebaceous gland grade +” value is given as 2; the “number of mice with hair follicle and sebaceous gland grade ±” value came out at 3. Besides, in test [1], the “number of mice with hair follicle and sebaceous gland grade −” value was 0.

For the compound `COC1CCCC(N(C(=O)c2ccc(-n3nnc4cccnc43)cc2)c2ncccc2Cl)C1` (stereo not drawn) [CLY-5], in the test with skin melanocytes, the “Area density of melanocytes” value is given as 0.004 ± 0.001, the Area of melanocytes amounted to 345.31 ± 56.21 um2, the “Average gray level (melanocyte depth)” value was determined as 0.40 ± 0.05 and the “Average optical density” value is recorded as 10.59 ± 1.13. In addition, in the test with skin melanocytes, the “Integrated optical density” value came to 107.06 ± 9.57, the “Number density of melanocytes” value is reported as 1.75 ± 1.29 and the Number of melanocytes turned out to be 1.43 ± 0.32.

Consider `Nc1cc(N2CCCCC2)nc(N)[n+]1[O-]` [Positive control group, minoxidil, reference compound], for which, in test [1], the “number of mice with hair follicle and sebaceous gland grade +++” value came out at 0; the “number of mice with hair follicle and sebaceous gland grade ++” value was 3; the “number of mice with hair follicle and sebaceous gland grade +” value came to 1; the “number of mice with hair follicle and sebaceous gland grade ±” value was 2. The “number of mice with hair follicle and sebaceous gland grade −” value in test [1] was 0.
